How the values were obtained:
[1] = tested on: bumblebee Bombus impatiens; experiment: Olfactory conditioning of PER in bumblebees: rutin vs imidacloprid; assay type: in vivo
Description: One colony of the bumblebee Bombus impatiens (Koppert Inc) was kept in laboratory conditions. Bees received pollen inside the nests and foraged to a 1M sugar-water feeder outside of the nest. Bees were collected while on the feeder and iced anesthetized to then be yolked restrained in plastic pipettes. Bees were maintained in the pipettes for the entire duration of the experiment (five days).
Control: 1M sugar water (20 μL) fed twice a day for three consecutive days;
Rutin: 1 μM Rutin (Sigma-Aldrich R5143) diluted in 1M sugar water (20 μL) fed twice a day for three days before training on the fourth day;
Imid: fed with 1M sugar water (20 μL) twice a day for three days and fed with 20 μL of 5 nM Imidacloprid (Prime Source LLC, IN, USA) in 1M sugar water 2 hours before training on the fourth day; and
Rutin+Imid: Bees fed with 1 μM Rutin diluted in 1M sugar water (20 μL) for three days before training and receiving 20 μL of 5 nM Imidacloprid in 1M sugar water 2 hours before training on the fourth day.
All bees were trained using olfactory conditioning of the proboscis extension response (PER). Briefly, bees were exposed to a presentation of 1-nonanol (Sigma-Aldrich) for 10 s. After 7 s of the onset of the odor presentation, the antenna was stimulated with 1.5 M sugar-water to elicit the PER. Following the PER, the bee was allowed to drink sugar-water for 3 s. Each paired presentation was considered a training trial and each individual received eleven training trials with an average intertrial interval of 10 minutes. After training, all bees were fed 20 μL of 1M sugar water and maintained in plastic boxes for 24 h until the retention test. […] Twenty-four hours after the last training trial the bees were presented with the conditioned odor for 10 s.
Performance for each individual was quantified as the number of conditioned PER responses across the trials. Thus, for each bee a score between zero and ten (0-10) was recorded.
Multiple comparisons were then run using Wilcoxon-tests between groups using single or two-tailed t-tests depending upon predictions (bees on all treatments were predicted to perform better than bees in the Imidacloprid group). Error due to multiple comparisons was controlled using the False Discovery Rate method (FDR-two stage sharpened method). In all cases corrected p-values are presented.
Acquisition learning (i.e. learning curves) was compared between bees fed with imidacloprid vs. protected bees using Repeated measures.
(§1) Retention was quantified as a nominal variable (yes/no). Data were compared across treatments using a Chi-square test, followed by multiple comparisons between pairs of treatments. Error due to multiple comparisons was controlled using the FDR as indicated above. In all cases corrected p-values are presented.
(§2) Latency was quantified as a continuous variable between 0.5 s and 10 s. Data were compared across treatments using an ANOVA following a Log transformation to normalize the distribution (Shapiro-Wilk W Test after log transformation: W=0.99, p=0.55), followed by multiple comparisons between groups using two-tailed t-test. Error due to multiple comparisons was controlled using the FDR method as indicated above. In all cases corrected p-values are presented.

[2] = tested on: Honey bee foragers (Apis mellifera scutellata); experiment: Classical conditioning of PER in honey bees: rutin, kaempferol, p-coumaric acid vs fipronil; assay type: in vivo
Description: Honey bee foragers (Apis mellifera scutellata) were captured from established hives at the Apiary of the Universidad del Rosario (Bogota, Colombia) between 08:00 h and 10:00 h. Bees were ice-anesthetized and harnessed in plastic tubes and maintained under laboratory conditions for the duration of the experiment (five days). Food was provided twice a day in a volumen of 10 μL and varied in composition according to experimental treatments.
Bees were randomly allocated to one of the following treatments administered twice a day for three consecutive days (all concentrations are final):
Control: 1M sucrose water (10 μL)
Rut: 1 μM rutin (Sigma-Aldrich: R5143)-1M sugar water (10 μL)
Kaemp:131 μM kaempferol (Sigma-Aldrich:K0133)+1M sugar water (10 μL)
p-Cou A: 200 μM p-coumaric acid (Sigma-Aldrich:C9008) diluted in 1M sugar water (10 μL)
Mix: 1 μM rutin, 131 μM kaempferol and 200 μM p-Coumaric acid): Bees fed with composition diluted in 1M sugar water (10 μL) fed twice a day for three days
On the fourth day, bees were randomly assigned to one of two treatments three hours before training:
Fipronil: 10 μL of 228 nM Fipronil (Astuto Invesa) in 1M sucrose water
Sucrose solution: 10 μL 1M sucrose water
Thus, bees belong to one of ten treatments: Control, Kaemp, Rut, p-Cou A, Mix, Fipro, Kaemp+Fipro, Rut+Fipro, p-Cou A+Fipro, Mix+Fipro.
Bees were trained using classical conditioning of the proboscis extension response (PER). Briefly, bees received a soft current of clean air for 15 seconds to allow bees to accommodate. Then a soft current of 1-hexanol (Sigma-Aldrich: 471402) was injected for 10 seconds. Six seconds after injection of 1-hexanol, one of the antennae was stimulated with sugar water (1.5M), which leads to the reflexive extension of the proboscis, and the bee was allowed to drink for 4 seconds. Thus, the reward and the stimulus overlapped for four seconds. This sequence, recognized as a training trial, was repeated eleven times. Time was determined using a metronome (2 Hz). Memory retention was tested 24 hours after the eleven training trials. […] 12 bees were trained each session. Training was conducted by an experimenter blind to treatment.
Learning for each individual was quantified as the number of conditioned PER responses across the trials. Thus, for each bee a learning score between zero and ten (0-10) was recorded.
Multiple comparisons were then run comparing learning score relative to Control bees using a non-parametric one or two-tailed Steel Method depending upon predictions. These comparisons informed us about the predicted impairment produced by the insecticides, the predicted innocuous effect of the flavonoid and the potential level of protection. Error due to multiple comparisons was controlled using the False Discovery Rate method (FDR-two stage sharpened method). In all cases corrected p-values (q-values) are presented.
as §1, with “Memory retention” for “Retention”, “comparisons” for “comparisons between pairs”, “all treatments vs. Control.” for “treatments.”, “p-values (q values)” for “p-values”
as §2, with “p>0.05 for all treatments for the null hypothesis that data is from a normal distribution),” for “W=0.99, p=0.55),”, “all treatments and the Control group (Dunnett's method).” for “groups using two-tailed t-test.”, “p-values (q-values)” for “p-values”

| Compound | learning across trials relative to Rutin+Imidacloprid bees ([1]; acquisition curves, repeated measures MANOVA) | latency of response relative to Control bees ([1]; bumblebees) | latency of response relative to bees fed with Rutin ([1]; bumblebees) | latency of response relative to bees prophylactically fed with Rutin ([1]; bumblebees) | memory retention after 24 h relative to Control group ([1]; bumblebees) | memory retention after 24 h relative to Rutin group ([1]; bumblebees) | memory retention after 24 h relative to Rutin+Imidacloprid group ([1]; bumblebees) | performance score relative to Control bees ([1]; bumblebees, score 0-10, rutin 1 μM twice a day for three days, imidacloprid 5 nM 20 μL 2 hours before training) | latency of response relative to Control bees ([2]; Dunnett's method) | learning score relative to Control bees ([2]; honey bees, score 0-10, 1 μM rutin, 131 μM kaempferol, 200 μM p-coumaric acid or Mix twice a day for three days, 228 nM fipronil 10 μL three hours before training) |
| --- | --- | --- | --- | --- | --- | --- | --- | --- | --- | --- |
| O=[N+]([O-])NC1=NCCN1Cc1ccc(Cl)nc1 [Imidacloprid] | significantly lower | significantly longer | significantly longer | not different | significantly lower | significantly lower | significantly lower | significantly lower | – | – |
| C[C@@H]1O[C@@H](OC[C@H]2O[C@@H](Oc3c(-c4ccc(O)c(O)c4)oc4cc(O)cc(O)c4c3=O)[C@H](O)[C@@H](O)[C@@H]2O)[C@H](O)[C@H](O)[C@H]1O [Rutin] | – | – | – | – | – | – | – | – | not significantly different from Control | not significantly different from Control bees |

Source: patent US20220339178A1, “COMPOSITIONS AND METHODS FOR COGNITIVE PROTECTION OF POLLINATORS AGAINST PESTICIDES” (priority 2019, published 2022)
